Reference: paper PMC8536644, “Enigmatic mechanism of the N-vinylpyrrolidone hepatocarcinogenicity in the rat” (Archives of Toxicology, 2021)
Read-outs that look alike come from different tables or passages of the source.

Key:
[1] = system: CYP1A; assay: EROD assay, lung microsomes of NVP-treated rats; type: in vivo, rat; conditions: after NVP treatment; below the LOD
Procedure: (§1) The alkoxyresorufin dealkylase (AROD) assays were based on the method by Burke et al. ([1994]).
The frozen livers and lungs of the NVP-treated male Wistar rats were thawed and washed with isotonic (0.9%) NaCl solution. The tissues were ice-cooled homogenized (1 g tissue: 3 mL 0.25 M saccharose in 1 mM disodium EDTA, pH 7.4) and centrifuged (9000 g, 15 min, 4 °C). The supernatant fraction was centrifuged (100 000 g, 60 min, 4 °C). The resulting supernatant fraction was used for the palmitoyl-CoA-oxidase assay described further down. The pellet was taken up in 150 mM aqueous KCl solution, recentrifuged (100 000 g, 60 min, 4 °C) and the pellet taken up in 1 mL/g liver or 0.5 mL/g lung resuspension buffer (1 mM GSH, 1 mM disodium EDTA, 4 mM MgCl2, 0.1 M KH2PO4, pH 7.5 and 4% glycerol). […]
For determination of the enzyme activities in triplicates, 85 µL master mix (100 mM TrisHCl pH 7.5, 2 mM 5’AMP, 5 mM G-6-P, 10 U G-6-P-DH, 10 mM Dicumarol, 10 mM MgCl2, either 2 µM EROD or 10 µM PROD or 5 µM BROD) was added to 10 µL microsomal fraction (1 mg protein/mL). […] The activity was determined by measuring the increase of the fluorescence (excitation at 550 nm, emission at 585 nm) due to resorufin formation compared with resorufin standards, which had been prepared by dissolving tenfold concentrated solutions in DMSO, which were then diluted tenfold in 100 mM TrisHCl pH 7.5.

[2] = system: CYP 2B/3A; assay: BROD assay, lung microsomes; type: in vivo, rat; conditions: male rats
Procedure: as §1
The frozen livers and lungs of the NVP-treated male Wistar rats were thawed and washed with isotonic (0.9%) NaCl solution. The tissues were ice-cooled homogenized (1 g tissue: 3 mL 0.25 M saccharose in 1 mM disodium EDTA, pH 7.4) and centrifuged (9000 g, 15 min, 4 °C). The supernatant fraction was centrifuged (100 000 g, 60 min, 4 °C). The resulting supernatant fraction was used for the palmitoyl-CoA-oxidase assay described further down. The pellet was taken up in 150 mM aqueous KCl solution, recentrifuged (100 000 g, 60 min, 4 °C) and the pellet taken up in 1 mL/g liver or 0.5 mL/g lung resuspension buffer (1 mM GSH, 1 mM disodium EDTA, 4 mM MgCl2, 0.1 M KH2PO4, pH 7.5 and 4% glycerol). Aliquots were stored at − 80 °C.
For determination of the enzyme activities in triplicates, 85 µL master mix (100 mM TrisHCl pH 7.5, 2 mM 5’AMP, 5 mM G-6-P, 10 U G-6-P-DH, 10 mM Dicumarol, 10 mM MgCl2, either 2 µM EROD or 10 µM PROD or 5 µM BROD) was added to 10 µL microsomal fraction (1 mg protein/mL). The reaction was started by the addition of 5 µL 2 mM NADPH (dissolved in 100 mM TrisHCl pH 7.5) followed by incubation at 37 °C for 16 min. The activity was determined by measuring the increase of the fluorescence (excitation at 550 nm, emission at 585 nm) due to resorufin formation compared with resorufin standards, which had been prepared by dissolving tenfold concentrated solutions in DMSO, which were then diluted tenfold in 100 mM TrisHCl pH 7.5.

[3] = Trypan Blue viability of the single cell suspension, liver; type: in vivo, rat; conditions: rat, inhaled
Procedure: (§2) The organ parts (see above) were washed in mincing buffer (50 mM EDTA in HBSS [without Ca^2+ and Mg^2+] pH 7.5: DMSO 9:1 (v/v), the latter added shortly before use, stored at 4 °C), cut into 1 to 2-mm pieces in ice-cold mincing buffer and transferred to a cell sieve with 70-µm pores. The viability of the cell suspension was evaluated by the Trypan Blue Assay (Strober [2001]).

[4] = system: rat liver cells; assay: as above; type: in vivo; conditions: liver, 5 days, individual animals
Procedure: as §2

C=CN1CCCC1=O [NVP, N-vinylpyrrolidone]
EROD activity in lung microsomes [1]: < 1.6 pmol/min/mg protein
BROD activity in lung microsomes ([2]; 5 ppm): 22.9 ± 11.0 pmol/min/mg protein
BROD activity in lung microsomes ([2]; 10 ppm): 25.5 ± 19.8 pmol/min/mg protein
BROD activity in lung microsomes ([2]; 20 ppm): 82.1 ± 76.8 pmol/min/mg protein
viability at 5 days ([3]; both sexes, Wistar Crl:WI (Han), liver and lung single cell suspensions, either of the two organs (liver, lung) after NVP treatment, read-out: Viability (dye exclusion test)): > 90%
viability at 5 days ([3]; both sexes, Wistar Crl:WI (Han), liver single cell suspension, liver cells, NVP-exposed, read-out: Viability, range of the individual animals): 90 to 99%
viability at 5 days ([3]; female, Wistar, liver, 5 ppm, liver, female, Comet with FPG (Table 9), 5 ppm inhalation, 5 days, individual animals, read-out: Individual viability (%)): 99%
viability at 5 days ([3]; female, Wistar, liver, 5 ppm, liver, female, Comet with FPG (Table 9), 5 ppm inhalation, 5 days, read-out: Viability (%) (mean ± SD)): 99 ± 1%
viability at 5 days ([3]; female, Wistar, liver, 5 ppm, liver, female, no FPG, 5 ppm inhalation, 5 days, individual animals, read-out: Individual viability (%)): 98%
viability at 5 days ([3]; female, Wistar, liver, 5 ppm, liver, female, no FPG, 5 ppm inhalation, 5 days, read-out: Viability (%) (mean ± SD)): 97 ± 1%
viability at 5 days ([3]; female, Wistar, liver, 10 ppm, liver, female, Comet with FPG (Table 9), 10 ppm inhalation, 5 days, individual animals, read-out: Individual viability (%)): 98%
viability at 5 days ([3]; female, Wistar, liver, 10 ppm, liver, female, Comet with FPG (Table 9), 10 ppm inhalation, 5 days, read-out: Viability (%) (mean ± SD)): 98 ± 1%
viability at 5 days ([3]; female, Wistar, liver, 10 ppm, liver, female, no FPG, 10 ppm inhalation, 5 days, individual animals, read-out: Individual viability (%)): 96%
viability at 5 days ([3]; female, Wistar, liver, 10 ppm, liver, female, no FPG, 10 ppm inhalation, 5 days, read-out: Viability (%) (mean ± SD)): 96 ± 1%
viability at 5 days ([3]; female, Wistar, liver, 20 ppm, liver, female, Comet with FPG (Table 9), 20 ppm inhalation, 5 days, individual animals, read-out: Individual viability (%)): 98%
viability at 5 days ([3]; female, Wistar, liver, 20 ppm, liver, female, Comet with FPG (Table 9), 20 ppm inhalation, 5 days, read-out: Viability (%) (mean ± SD)): 98 ± 1%
viability at 5 days ([3]; female, Wistar, liver, 20 ppm, liver, female, no FPG, 20 ppm inhalation, 5 days, individual animals, read-out: Individual viability (%)): 96%
viability at 5 days ([3]; female, Wistar, liver, 20 ppm, liver, female, no FPG, 20 ppm inhalation, 5 days, read-out: Viability (%) (mean ± SD)): 97 ± 1%
viability at 5 days ([3]; male, Wistar, liver, 5 ppm, liver, male, Comet with FPG (Table 8), 5 ppm inhalation, 5 days, individual animals, read-out: Individual viability (%)): 97%
viability at 5 days ([3]; male, Wistar, liver, 5 ppm, liver, male, Comet with FPG (Table 8), 5 ppm inhalation, 5 days, read-out: Viability (%) (mean ± SD)): 98 ± 1%
viability at 5 days ([3]; male, Wistar, liver, 5 ppm, liver, male, no FPG, 5 ppm inhalation, 5 days, individual animals, read-out: Individual viability (%)): 92%
viability at 5 days ([3]; male, Wistar, liver, 5 ppm, liver, male, no FPG, 5 ppm inhalation, 5 days, read-out: Viability (%) (mean ± SD)): 95 ± 3%
viability at 5 days ([3]; male, Wistar, liver, 10 ppm, liver, male, Comet with FPG (Table 8), 10 ppm inhalation, 5 days, individual animals, read-out: Individual viability (%)): 99%
viability at 5 days ([3]; male, Wistar, liver, 10 ppm, liver, male, Comet with FPG (Table 8), 10 ppm inhalation, 5 days, read-out: Viability (%) (mean ± SD)): 98 ± 2%
viability at 5 days ([3]; male, Wistar, liver, 10 ppm, liver, male, no FPG, 10 ppm inhalation, 5 days, individual animals, read-out: Individual viability (%)): 96%
viability at 5 days ([3]; male, Wistar, liver, 10 ppm, liver, male, no FPG, 10 ppm inhalation, 5 days, read-out: Viability (%) (mean ± SD)): 96 ± 1%
viability at 5 days ([3]; male, Wistar, liver, 20 ppm, liver, male, Comet with FPG (Table 8), 20 ppm inhalation, 5 days, individual animals, read-out: Individual viability (%)): 100%
viability at 5 days ([3]; male, Wistar, liver, 20 ppm, liver, male, Comet with FPG (Table 8), 20 ppm inhalation, 5 days, read-out: Viability (%) (mean ± SD)): 99 ± 1%
viability at 5 days ([3]; male, Wistar, liver, 20 ppm, liver, male, no FPG, 20 ppm inhalation, 5 days, individual animals, read-out: Individual viability (%)): 98%
viability at 5 days ([3]; male, Wistar, liver, 20 ppm, liver, male, no FPG, 20 ppm inhalation, 5 days, read-out: Viability (%) (mean ± SD)): 97 ± 1%
Individual viability (%) ([4]; female, no FPG, 10 ppm inhalation): 94%
Individual viability (%) ([4]; male, Comet with FPG (Table 8), 10 ppm inhalation): 93%
Individual viability (%) ([4]; male, no FPG, 5 ppm inhalation): 90%
